From patent US20230183193A1, “4-DIFLUOROMETHYL BENZOYL AMIDES WITH HERBICIDAL ACTION” (BAYER CROPSCIENCE AKTIENGESELLSCHAFT, priority 2017, published 2023)

Key:
Type in all cases: in vivo
Polygonum convolvulus = experiment: Pre-emergence herbicidal action, POLCO; details: 320 g/ha, comparison with WO 2011035874, Table H
From the text: (§1) 1. Pre-Emergence Herbicidal Action Against Harmful Plants Seeds of monocotyledonous and dicotyledonous weed plants and crop plants are laid out in sandy loam soil in wood-fiber pots and covered with soil. The compounds of the invention, formulated in the form of wettable powders (WP) or as emulsion concentrates (EC), are then applied to the surface of the covering soil in the form of an aqueous suspension or emulsion at a water application rate equating to […], with addition of 0.2% wetting agent. After the treatment, the pots are placed in a greenhouse and kept under good growth conditions for the trial plants. The damage to the test plants is scored visually after a test period of 3 weeks by comparison with untreated controls (herbicidal activity in percent (%): 100% activity=the plants have died, 0% activity=like control plants).
(§2) For comparison, the herbicidal activity of numerous compounds according to the invention was tested with the structurally closest compounds known from the documents WO 2011/035874, WO 2012/028579 and WO 2012/126932, by the pre- and post-emergence method.

Viola tricolor [1] = experiment: Post-emergence herbicidal action, VIOTR; details: 80 g/ha, comparison with WO2011035874, Table F
Summary of the method: (§3)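 Post-emergence spray; one-leaf stage (2–3 wk after sowing), sandy loam, greenhouse. WP/EC in water, 600 to […], +0.2% wetting agent. Visual % damage vs untreated at ~3 wk; 100% = plants dead.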

Abutilon theophrasti = experiment: Pre-emergence herbicidal action, ABUTH; details: 320 g/ha, comparison with WO 2011035874, Table G
Summary of the method: (§4)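 Weed seeds were laid out in sandy loam and covered with soil, then the soil surface was treated with an aqueous suspension or emulsion of the formulated compound containing 0.2% wetting agent. Pots stayed in the greenhouse for 3 weeks before damage was rated visually against untreated plants.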

Stellaria media [2] = experiment: Post-emergence herbicidal action, STEME; details: 80 g/ha, comparison with WO2011035874, Table F
Summary of the method: as §3

Amaranthus retroflexus = experiment: Pre-emergence herbicidal action, AMARE; details: 320 g/ha, comparison with WO 2011035874, Table H
Summary of the method: as §4

Alopecurus myosuroides = experiment: Pre-emergence herbicidal action, ALOMY; details: 320 g/ha, comparison with WO 2011035874, Table G
Summary of the method: as §4

Avena fatua = experiment: Pre-emergence herbicidal action, AVEFA; details: 320 g/ha, comparison with WO 2011035874, Table G
Summary of the method: as §4

Viola tricolor [3] = experiment: Pre-emergence herbicidal action, VIOTR; details: 320 g/ha, comparison with WO 2011035874, Table H
Summary of the method: as §4

Veronica persica = experiment: Pre-emergence herbicidal action, VERPE; details: 320 g/ha, comparison with WO 2011035874, Table H
From the text: as §1, §2

Cyperus serotinus = experiment: Pre-emergence herbicidal action, CYPES; details: 320 g/ha, comparison with WO 2011035874, Table G
Summary of the method: as §4

Pharbitis purpureum = experiment: Post-emergence herbicidal action, PHBPU; details: 80 g/ha, comparison with WO2011035874, Table F
Summary of the method: as §3

Stellaria media [4] = experiment: Pre-emergence herbicidal action, STEME; details: 320 g/ha, comparison with WO 2011035874, Table H
Summary of the method: as §4

Setaria viridis = experiment: Pre-emergence herbicidal action, SETVI; details: 320 g/ha, comparison with WO 2011035874, Table G
Summary of the method: as §4

ECHCG = experiment: Pre-emergence herbicidal action, ECHCG; details: 320 g/ha, comparison with WO 2011035874, Table G
From the text: as §1

Matricaria inodora = experiment: Post-emergence herbicidal action, MATIN; details: 80 g/ha, comparison with WO2011035874, Table F
Method: Seeds of monocotyledonous and dicotyledonous weed and crop plants are laid out in sandy loam soil in wood-fiber pots, covered with soil and cultivated in a greenhouse under good growth conditions. 2 to 3 weeks after sowing, the test plants are treated at the one-leaf stage. The compounds of the invention, formulated in the form of wettable powders (WP) or as emulsion concentrates (EC), are then sprayed onto the green parts of the plants in the form of an aqueous suspension or emulsion at a water application rate equating to […], with addition of 0.2% wetting agent. After the test plants have been left to stand in the greenhouse under optimal growth conditions for about 3 weeks, the action of the preparations is assessed visually in comparison to untreated controls (herbicidal action in percent (%): 100% activity=the plants have died, 0% activity=like control plants). […] At the same time, inventive compounds leave Gramineae crops such as barley, wheat, rye, millet/sorghum, corn or rice virtually undamaged when applied post-emergence, even at high active compound dosages. In addition, some substances are also harmless to dicotyledonous crops such as soya, cotton, oilseed rape, sugar beet or potatoes. Some of the compounds according to the invention have high selectivity and are therefore suitable for controlling unwanted vegetation in agricultural crops by the post-emergence method. The data of Tables C and D below illustrate, in an exemplary manner, the […] herbicidal action of the compounds according to the invention, the herbicidal activity being stated in percent.
as §2

## CC[S+]([O-])c1c(C(F)F)ccc(C(=O)Nc2nnnn2C)c1I (stereo not drawn) [Example 1-77]
Polygonum convolvulus
  Herbicidal efficacy against POLCO: 30%
Viola tricolor [1]
  Herbicidal efficacy against VIOTR: 60%
Abutilon theophrasti
  Herbicidal efficacy against ABUTH: 100%
Stellaria media [2]
  Herbicidal efficacy against STEME: 80%
Amaranthus retroflexus
  Herbicidal efficacy against AMARE: 100%
Alopecurus myosuroides
  Herbicidal efficacy against ALOMY: 10%
Avena fatua
  Herbicidal efficacy against AVEFA: 0%
Viola tricolor [3]
  Herbicidal efficacy against VIOTR: 60%
Veronica persica
  Herbicidal efficacy against VERPE: 90%
Cyperus serotinus
  Herbicidal efficacy against CYPES: 30%
Pharbitis purpureum
  Herbicidal efficacy against PHBPU: 40%
Stellaria media [4]
  Herbicidal efficacy against STEME: 80%
Setaria viridis
  Herbicidal efficacy against SETVI: 20%
ECHCG
  Herbicidal efficacy against ECHCG: 70%
Matricaria inodora
  Herbicidal efficacy against MATIN: 0%
